From patent publication US20260285859A1, “BI-CYCLIC PYRIMIDINE COMPOUNDS, METHODS AND USES THEREOF” (Zeno Management, Inc., priority 2023, published 2026)

What was measured:
[1] = molecular target: T1, PKMYT1 (Homo sapiens, UniProt Q99640); assay: LanthaScreen Eu Kinase Binding Assay, PKMYT1
T1 sequence (Q99640 1-499): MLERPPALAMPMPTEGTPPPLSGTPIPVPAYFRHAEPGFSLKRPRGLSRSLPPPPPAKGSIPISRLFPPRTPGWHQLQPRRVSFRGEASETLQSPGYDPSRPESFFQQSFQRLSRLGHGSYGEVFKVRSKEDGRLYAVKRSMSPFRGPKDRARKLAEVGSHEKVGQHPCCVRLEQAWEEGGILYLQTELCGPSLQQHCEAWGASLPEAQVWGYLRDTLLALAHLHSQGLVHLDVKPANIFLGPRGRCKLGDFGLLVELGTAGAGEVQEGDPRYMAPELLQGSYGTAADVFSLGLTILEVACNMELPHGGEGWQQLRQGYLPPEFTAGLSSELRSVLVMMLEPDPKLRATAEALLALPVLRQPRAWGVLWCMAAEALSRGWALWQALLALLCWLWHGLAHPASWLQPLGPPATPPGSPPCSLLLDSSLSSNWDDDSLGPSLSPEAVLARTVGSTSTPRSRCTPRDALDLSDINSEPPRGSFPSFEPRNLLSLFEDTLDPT
Method: (§1) Binding of the tracer to the kinase is detected using a europium-labeled anti-GST antibody, which binds to the fused tag on the kinase protein. […] Inhibitor binding to the kinase competes with tracer binding, resulting in loss of FRET from the donor/acceptor pairs.
(§2) Kinase/Antibody Mixtures and Tracer are diluted to a 2× and 4× working concentration, respectively in this same buffer. […] 0% displacement (no known inhibitor) and 100% displacement (highest concentration of known inhibitor) controls were included on each plate for maximum and minimum Emission Ratio determination, respectively. Dasatinib was used for both PKMYT1 and WEE1 as the known inhibitor.
(§3) IC50 determination was performed using a non-linear regression, variable slope (four parameter), inhibitor v. response equation (Prism 9.0).

[2] = molecular target: WEE1 (Homo sapiens, UniProt P30291); assay: LanthaScreen Eu Kinase Binding Assay, WEE1
WEE1, sequence (P30291 whole entry): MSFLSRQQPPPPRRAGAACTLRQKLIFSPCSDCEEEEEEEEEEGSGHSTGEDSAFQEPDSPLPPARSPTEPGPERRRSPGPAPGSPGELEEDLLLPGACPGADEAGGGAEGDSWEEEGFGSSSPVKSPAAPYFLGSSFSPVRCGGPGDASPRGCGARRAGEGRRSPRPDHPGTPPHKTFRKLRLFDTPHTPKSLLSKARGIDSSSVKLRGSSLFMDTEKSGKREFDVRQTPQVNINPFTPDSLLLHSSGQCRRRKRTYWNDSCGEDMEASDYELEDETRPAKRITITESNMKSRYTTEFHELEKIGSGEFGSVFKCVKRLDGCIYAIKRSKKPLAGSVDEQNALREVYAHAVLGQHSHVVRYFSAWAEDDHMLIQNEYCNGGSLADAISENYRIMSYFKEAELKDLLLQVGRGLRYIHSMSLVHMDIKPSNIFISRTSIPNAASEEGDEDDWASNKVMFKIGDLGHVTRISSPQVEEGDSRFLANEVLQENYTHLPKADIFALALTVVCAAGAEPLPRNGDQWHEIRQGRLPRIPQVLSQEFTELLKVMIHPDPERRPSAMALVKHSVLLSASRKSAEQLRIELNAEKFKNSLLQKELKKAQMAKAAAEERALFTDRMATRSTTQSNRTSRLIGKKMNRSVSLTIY
Method: as §1, §2, §3

IC50 [1] [nM] | IC50 [2] [nM] | Structure (SMILES)
10 to 100 | > 1000 | Cc1ccc(O)c(C)c1-c1nc(N(C)CCO)cc2c(N)ncnc12 (racemic) [Compound 47-A, 3-(4-amino-6-((2-hydroxyethyl)(methyl)amino)pyrido[3,4-d]pyrimidin-8-yl)-2,4-dimethylphenol]
10 to 100 | > 1000 | CNc1cc2c(N)ncnc2c(-c2c(C)ccc(O)c2C)n1 (single isomer, unassigned) [Compound 1-B]
< 10 | 100 to 1000 | Cc1ccc(O)c(C)c1-c1nc(N2CCC(F)(F)C2)cc2c(N)ncnc12 (single isomer, unassigned) [Compound 2-B]
< 10 | > 1000 | Cc1ccc(O)c(C)c1-c1nc(N2CC[C@@H](O)C2)cc2c(N)ncnc12 (single isomer, unassigned) [Compound 3-B]
10 to 100 | > 1000 | Cc1ccc(O)c(C)c1-c1nc(N2CC[C@H](O)C2)cc2c(N)ncnc12 (single isomer, unassigned) [Compound 4-B]
10 to 100 | > 1000 | Cc1ccc(O)c(C)c1-c1nc(N2CC(F)(F)C2)cc2c(N)ncnc12 (single isomer, unassigned) [Compound 5-B]
< 10 | > 1000 | Cc1ccc(O)c(C)c1-c1nc(N2CCCC2)cc2c(N)ncnc12 (single isomer, unassigned) [Compound 6-B]
< 10 | > 1000 | Cc1ccc(O)c(C)c1-c1nc(N2CCOCC2)cc2c(N)ncnc12 (single isomer, unassigned) [Compound 7-B]
10 to 100 | > 1000 | Cc1ccc(O)c(C)c1-c1nc(N=S(C)(C)=O)cc2c(N)ncnc12 (single isomer, unassigned) [Compound 8-B]
10 to 100 | > 1000 | COCCN(C)c1cc2c(N)ncnc2c(-c2c(C)ccc(O)c2C)n1 (single isomer, unassigned) [Compound 9-B]
< 10 | > 1000 | Cc1ccc(O)c(C)c1-c1nc(N(C)C)cc2c(N)ncnc12 (single isomer, unassigned) [Compound 10-B]
< 10 | > 1000 | Cc1ccc(O)c(C)c1-c1nc(N2CCC(O)CC2)cc2c(N)ncnc12 (single isomer, unassigned) [Compound 11-B]
< 10 | > 1000 | Cc1ccc(O)c(C)c1-c1nc(N(C)C(C)C)cc2c(N)ncnc12 (single isomer, unassigned) [Compound 12-B]
10 to 100 | > 1000 | Cc1ccc(O)c(C)c1-c1nc(N2CC[C@](C)(O)C2)cc2c(N)ncnc12 (single isomer, unassigned) [Compound 13-E]
10 to 100 | > 1000 | Cc1ccc(O)c(C)c1-c1nc(N[C@H]2C[C@H](O)C2)cc2c(N)ncnc12 (single isomer, unassigned) [Compound 15-B]
10 to 100 | > 1000 | Cc1ccc(O)c(C)c1-c1nc(NS(C)(=O)=O)cc2c(N)ncnc12 (single isomer, unassigned) [Compound 16-B]
< 10 | > 1000 | Cc1ccc(O)c(C)c1-c1nc(C2CC2)cc2c(N)ncnc12 (single isomer, unassigned) [Compound 18-B]
< 10 | 100 to 1000 | Cc1ccc(O)c(C)c1-c1nc(-c2cnn(C)c2)cc2c(N)ncnc12 (single isomer, unassigned) [Compound 19-B]
< 10 | 100 to 1000 | Cc1ccc(O)c(C)c1-c1nc(N2CCCC(F)(F)C2)cc2c(N)ncnc12 (single isomer, unassigned) [Compound 20-B]
< 10 | 100 to 1000 | Cc1ccc(O)c(C)c1-c1nc(N(C)C2CC2)cc2c(N)ncnc12 (single isomer, unassigned) [Compound 21-B]
10 to 100 | > 1000 | Cc1ccc(O)c(C)c1-c1nc(N2CC(C)(CO)C2)cc2c(N)ncnc12 (single isomer, unassigned) [Compound 22-B]
< 10 | > 1000 | COC[C@H]1CCN(c2cc3c(N)ncnc3c(-c3c(C)ccc(O)c3C)n2)C1 (single isomer, unassigned) [Compound 23-B]
10 to 100 | > 1000 | COC[C@@H]1CCN1c1cc2c(N)ncnc2c(-c2c(C)ccc(O)c2C)n1 (single isomer, unassigned) [Compound 24-B]
10 to 100 | > 1000 | COC[C@H]1CCN1c1cc2c(N)ncnc2c(-c2c(C)ccc(O)c2C)n1 (single isomer, unassigned) [Compound 25-B]
10 to 100 | > 1000 | COC1CN(c2cc3c(N)ncnc3c(-c3c(C)ccc(O)c3C)n2)C1 (single isomer, unassigned) [Compound 26-B]

IC50 [1] [nM] | IC50 [2] [nM] | Structure (SMILES)
< 10 | > 1000 | CCN(C)c1cc2c(N)ncnc2c(-c2c(C)ccc(O)c2C)n1 (single isomer, unassigned) [Compound 27-B]
< 10 | > 1000 | Cc1ccc(O)c(C)c1-c1nc(N(C)CC(F)F)cc2c(N)ncnc12 (single isomer, unassigned) [Compound 28-B]
< 10 | > 1000 | Cc1ccc(O)c(C)c1-c1nc(N(C)CC(F)(F)F)cc2c(N)ncnc12 (single isomer, unassigned) [Compound 29-B]
< 10 | > 1000 | Cc1ccc(O)c(C)c1-c1nc(N(C)CC2CC2)cc2c(N)ncnc12 (single isomer, unassigned) [Compound 30-B]
< 10 | 100 to 1000 | Cc1ccc(O)c(C)c1-c1nc(-c2ccc(F)cc2F)cc2c(N)ncnc12 (single isomer, unassigned) [Compound 31-B]
< 10 | > 1000 | C#Cc1cc2c(N)ncnc2c(-c2c(C)ccc(O)c2C)n1 (single isomer, unassigned) [Compound 33-B]
100 to 1000 | > 1000 | Cc1ccc(O)c(C)c1-c1nc(C(=O)N2CCCC2)cc2c(N)ncnc12 (single isomer, unassigned) [Compound 34-B]
100 to 1000 | > 1000 | Cc1ccc(O)c(C)c1-c1nc(CC(=O)N2CCOCC2)cc2c(N)ncnc12 (single isomer, unassigned) [Compound 35-B]
< 10 | 100 to 1000 | CCN(c1cc2c(N)ncnc2c(-c2c(C)ccc(O)c2C)n1)C1CC1 (single isomer, unassigned) [Compound 36-B]
< 10 | 100 to 1000 | Cc1ccc(O)c(C)c1-c1nc(N(C)C2CCC2)cc2c(N)ncnc12 (single isomer, unassigned) [Compound 37-B]
< 10 | > 1000 | Cc1ccc(O)c(C)c1-c1nc(N2CC[C@]3(CCO3)C2)cc2c(N)ncnc12 (single isomer, unassigned) [Compound 38-B]
10 to 100 | – | Cc1ccc(O)c(C)c1-c1nc(C(F)(F)F)cc2c(N)ncnc12 (single isomer, unassigned) [Compound 39-B]
< 10 | > 1000 | Cc1ccc(O)c(C)c1-c1nc(C2CCC2)cc2c(N)ncnc12 (single isomer, unassigned) [Compound 40-B]
< 10 | > 1000 | Cc1ccc(O)c(C)c1-c1nc(N(C)CCC#N)cc2c(N)ncnc12 (single isomer, unassigned) [Compound 41-B]
< 10 | 100 to 1000 | Cc1ccc(O)c(C)c1-c1nc(N(C)C2(C(F)(F)F)CC2)cc2c(N)ncnc12 (single isomer, unassigned) [Compound 42-B]
< 10 | > 1000 | Cc1ccc(O)c(C)c1-c1nc(N2CCCC2=O)cc2c(N)ncnc12 (single isomer, unassigned) [Compound 43-B]
< 10 | 100 to 1000 | Cc1ccc(O)c(C)c1-c1nc(N(C)C2CCCC2)cc2c(N)ncnc12 (single isomer, unassigned) [Compound 44-B]
10 to 100 | > 1000 | CC[C@H](C)N(C)c1cc2c(N)ncnc2c(-c2c(C)ccc(O)c2C)n1 (single isomer, unassigned) [Compound 45-B]
< 10 | > 1000 | Cc1ccc(O)c(C)c1-c1nc(N(C)c2cnn(C)c2)cc2c(N)ncnc12 (single isomer, unassigned) [Compound 46-B]
10 to 100 | > 1000 | Cc1ccc(O)c(C)c1-c1nc(C(F)F)cc2c(N)ncnc12 (single isomer, unassigned) [Compound 48-B]
10 to 100 | > 1000 | COc1cc2c(N)ncnc2c(-c2c(C)ccc(O)c2C)n1 (single isomer, unassigned) [Compound 49-B]
10 to 100 | > 1000 | Cc1ccc(O)c(C)c1-c1nc(C(C)C)cc2c(N)ncnc12 (single isomer, unassigned) [Compound 50-B]
10 to 100 | > 1000 | Cc1ccc(O)c(C)c1-c1c(C)c(N(C)C)cc2c(N)ncnc12 (single isomer, unassigned) [Compound 51-B]
10 to 100 | > 1000 | Cc1cc2c(N)ncnc2c(-c2c(C)ccc(O)c2C)c1C (single isomer, unassigned) [Compound 52-B]
10 to 100 | > 1000 | Cc1cc(-c2c(C)ccc(O)c2C)c2ncnc(N)c2c1 (single isomer, unassigned) [Compound 53-B]

Structure (SMILES) | IC50 [1] [nM] | IC50 [2] [nM]
Cc1cc2c(C(N)=O)c(N)n(-c3c(C)ccc(O)c3C)c2nc1C [RP-6306, Lunresertib, reference compound] | – | 10 to 100
